US6737383B1, “Herbicidal oxadiazolidines” (priority 1999, dated 2004)

What was measured:
rice = assay: Test B flood test rice; type: in vivo, Oryza sativa; conditions: for Plant response rating, Rice (0 to 10 scale, 0 is no effect, 10 is complete control): Rate 62 g/ha; for Plant response rating, Rice (0 to 10 scale, 0 is no effect, 10 is complete control) / Rice plant response rating (0 to 10 scale, 0 is no effect, 10 is complete control): visual evaluation after twelve to sixteen days; for Rice plant response rating (0 to 10 scale, 0 is no effect, 10 is complete control): under heading Pre-emergence
Procedure, shortened: (§1)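 Plants were grown to the 2-leaf stage before treatment with test chemical, then held in a greenhouse for twelve to sixteen days. Injury was visually rated against untreated controls on a 0–10 scale, where 0 is no effect and 10 is complete control.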

soybean = assay: Test B pre/postemergence soybean; type: in vivo, Glycine max
Procedure, shortened: (§2)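 Test chemicals in a non-phytotoxic solvent mixture with surfactant were sprayed preemergence onto planted seeds and postemergence onto plants 2 to 18 cm tall (1- to 4-leaf stage). After twelve to sixteen days in a greenhouse, injury was visually rated against untreated controls from 0 (no effect) to 10 (complete control).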

giant foxtail = assay: Test B pre/postemergence giant foxtail; type: in vivo, Setaria faberii
Procedure, shortened: as §2

bamyardgrass = assay: Test B flood test barnyardgrass; type: in vivo, Echinochloa crus-galli; conditions: for Plant response rating, Barnyardgrass (0 to 10 scale, 0 is no effect, 10 is complete control) / Barnyardgrass plant response rating (0 to 10 scale, 0 is no effect, 10 is complete control): visual evaluation after twelve to sixteen days; for Barnyardgrass plant response rating (0 to 10 scale, 0 is no effect, 10 is complete control): under heading Pre-emergence
Procedure, shortened: as §1

[1] = flood test species, Pre-emergence
[2] = Rate 125 g/ha, flood test species
[3] = Rate 250 g/ha, Pre-emergence, flood-test species, scale 0 to 10, 0 is no effect, 10 is complete control
[4] = Rate 500 g/ha, Pre-emergence, flood test species, scale 0 to 10 (0 no effect, 10 complete control)
[5] = Postemergence, Rate 250 g/ha, scale 0 to 10, 0 is no effect, 10 is complete control
[6] = Postemergence, Rate 500 g/ha, scale of 0 to 10 where 0 is no effect and 10 is complete control
[7] = Preemergence, Rate 62 g/ha, scale 0 to 10 (0 no effect, 10 complete control)
[8] = Preemergence, Rate 125 g/ha, scale of 0 to 10 where 0 is no effect and 10 is complete control
[9] = Preemergence, Rate 250 g/ha, scale 0 to 10, 0 is no effect, 10 is complete control
[10] = Preemergence, Rate 500 g/ha, scale 0 to 10, 0 is no effect, 10 is complete control
[11] = Rate 62 g/ha, Postemergence, scale of 0 to 10 where 0 is no effect and 10 is complete control
[12] = Postemergence, Rate 125 g/ha, scale 0 to 10, 0 is no effect, 10 is complete control
[13] = Rate 62 g/ha, flood test species, Pre-emergence
[14] = Postemergence section (flood test species), Rate 500 g/ha, scale of 0 to 10 where 0 is no effect and 10 is complete control
[15] = Rate 125 g/ha, Postemergence section (flood test species), scale 0 to 10, 0 is no effect, 10 is complete control
[16] = flood test species, listed under Postemergence, Rate 250 g/ha, scale 0 to 10, 0 is no effect, 10 is complete control
[17] = Rate 125 g/ha, Postemergence, scale 0 to 10, 0 is no effect, 10 is complete control

Compound | Plant response rating, Rice (0 to 10 scale, 0 is no effect, 10 is complete control) (rice; [1]) | Rice plant response rating (0 to 10 scale, 0 is no effect, 10 is complete control) (rice; [2]) | Rice plant response rating (rice; [3]) | Rice plant response rating (rice; [4]) | Plant response rating, Soybean (soybean; [5]) | Soybean plant response rating (soybean; [6]) | Plant response rating, Soybean (soybean; [7]) | Plant response rating, Soybean (soybean; [8]) | Soybean plant response rating (soybean; [9]) | Soybean plant response rating (soybean; [10]) | Plant response rating, Giant foxtail (giant foxtail; [12]) | Plant response rating, Giant foxtail (giant foxtail; [5]) | Giant foxtail plant response rating (giant foxtail; [6]) | Plant response rating, Giant foxtail (giant foxtail; [7]) | Plant response rating, Giant foxtail (giant foxtail; [8]) | Giant foxtail plant response rating (giant foxtail; [9]) | Giant foxtail plant response rating (giant foxtail; [10]) | Giant foxtail plant response rating (giant foxtail; [11]) | Plant response rating, Barnyardgrass (0 to 10 scale, 0 is no effect, 10 is complete control) (bamyardgrass; [13]) | Barnyardgrass plant response rating (0 to 10 scale, 0 is no effect, 10 is complete control) (bamyardgrass; [2]) | also measured
CC1CC1Cn1c(=O)on(C(=O)N(c2ccc(F)cc2)C(C)C)c1=O (stereo not drawn) [Compound 402] | 1 | 1 | 2 | 2 | 6 | 8 | 0 | 0 | 0 | 1 | 8 | 9 | 9 | 10 | 10 | 10 | 10 | 8 | 5 | 5 | Soybean plant response rating (soybean; [11]): 4; Barnyardgrass plant response rating (bamyardgrass; [3]): 8; Barnyardgrass plant response rating (bamyardgrass; [4]): 9
CC(C)N(C(=O)n1oc(=O)n(CC2CCC2)c1=O)c1ccc(F)cc1 [Compound 403] | 0 | 0 | 0 | 0 | 6 | 8 | 0 | 0 | 0 | 2 | 3 | 9 | 9 | 10 | 10 | 10 | 10 | 3 | 2 | 4 | Soybean plant response rating (soybean; [11]): 4; Barnyardgrass plant response rating (bamyardgrass; [3]): 2; Barnyardgrass plant response rating (bamyardgrass; [4]): 7
Cc1nc(Cl)sc1C(C)n1c(=O)on(C(=O)N(c2ccccc2)C(C)C)c1=O (stereo not drawn) [Compound 407] | 0 | 0 | 0 | 0 | 2 | 2 | 0 | 0 | 0 | 0 | 0 | 3 | 8 | 0 | 6 | 9 | 10 | 0 | 0 | 0 | Barnyardgrass plant response rating (bamyardgrass; [3]): 0; Barnyardgrass plant response rating (bamyardgrass; [4]): 0
CC(C)N(C(=O)n1oc(=O)n(C(CF)CF)c1=O)c1ccccc1 [Compound 421] |  |  |  |  | 7 | 8 | 4 | 4 | 5 | 10 |  | 9 | 9 | 9 | 10 | 10 | 10 | 8 |  |  | Rice plant response rating (rice; [14]): 2; Rice plant response rating (rice; [15]): 0; Plant response rating, Rice (rice; [16]): 2; Soybean plant response rating (soybean; [17]): 6; Giant foxtail plant response rating (giant foxtail; [17]): 9; Barnyardgrass plant response rating (bamyardgrass; [14]): 3; Barnyardgrass plant response rating (bamyardgrass; Rate 62 g/ha, Postemergence (flood test species), scale of 0 to 10 where 0 is no effect and 10 is complete control): 0; Barnyardgrass plant response rating (bamyardgrass; [15]): 0; Plant response rating, Barnyardgrass (bamyardgrass; [16]): 2
